Reference: patent US8906952B2, “Indole derivative or pharmaceutically acceptable salt thereof, preparation method thereof, and pharmaceutical composition for preventing or treating metabolic diseases containing same as active ingredient” (Korea Research Institute of Bioscience and Biotechnology, priority 2011, dated 2014)
Like-named read-outs stand apart in the source and are kept apart here.

Tests used:
human DGAT2 = molecular target: T1, human DGAT2 (Homo sapiens, UniProt Q96PD7); assay: DGAT enzyme inhibition test, hDGAT2 enzyme from sf9 insect cells (DGAT2 selectivity); type: biochemical
T1 construct: made in house; host or cells: sf9 insect cells
T1 sequence (Q96PD7 1-388): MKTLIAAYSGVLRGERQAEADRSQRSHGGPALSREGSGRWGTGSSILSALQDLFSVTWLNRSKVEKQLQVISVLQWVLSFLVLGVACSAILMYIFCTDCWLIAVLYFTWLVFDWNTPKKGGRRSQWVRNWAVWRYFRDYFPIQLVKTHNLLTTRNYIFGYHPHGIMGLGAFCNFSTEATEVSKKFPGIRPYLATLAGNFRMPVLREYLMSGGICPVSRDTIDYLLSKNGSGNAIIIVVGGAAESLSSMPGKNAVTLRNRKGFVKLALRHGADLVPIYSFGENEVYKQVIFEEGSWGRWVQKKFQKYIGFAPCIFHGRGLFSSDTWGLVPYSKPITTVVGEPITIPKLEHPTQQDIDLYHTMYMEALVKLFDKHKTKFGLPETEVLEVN
Excerpt: To investigate inhibitory effect of the compounds of Examples 1-33 against DGAT enzyme activity, DGAT enzyme inhibition and DGAT2 selectivity were investigated using zymogen including:
1) hDGAT1 and hDGAT2 enzymes, derived from insect cell overexpressing human DGAT1 and DGAT2 (‘sf9’), respectively,
To be specific, for the purpose of measuring human-derived DGAT enzyme inhibitory activity, using the zymogen, including enzymes derived from insect cell overexpressing human DGAT1 and DGAT2 (‘sf9’), microsomal protein isolated from human duodenal adenocarcinoma (‘Hutu 80’), and microsomal protein isolated from rat, and according to Coleman et al., (Methods Enzymol., 98-103, 1992), and substrate including 1,2-diacylglycerol(Sigma, D0138) and [^14C]palmitoyl-CoA (Amersham, CFA583), the amount of radiation of [^14C]triacylglycerol produced after enzymatic reaction was measured.
To be more specific, to the reaction solution containing 175 mM Tris-HCl (pH 8.0), 20 μl bovine serum albumin (10 mg/ml), 100 mM magnesium chloride, 30 μM [^14C]palmitoyl CoA (0.02 μCi, Amersham) and 200 μM 1,2-dioleoylglycerol, reagent dissolved in dimethylsulfoxide (10.0 μl) was added. After introducing 100 to 200 μg isolated microsomal protein and allowing the same to react at 25° C. for 10 min, the reaction was stopped by adding 1.5 ml stop solution (2-propanol:heptane:water=80:20:2, v:v:v). To isolate the product of the reaction (i.e., [^14C]triacylglycerol), 1 ml heptane and 0.5 ml distilled water were added and then decocted. After taking 1 ml supernatant, 2 ml alkaline ethanol solution (ethanol:0.5 N sodium hydroxide:water=50:10:40, v:v:v) were added and then decocted. After taking 0.65 ml supernatant from the decoction, the amount of radiation was measured with liquid scintillation counter (LSC). The DGAT inhibitory activity was calculated with Mathematical Expression 1 below:
T denotes cpm of experimental group in which the enzymatic reaction solution was treated with the sample,
C denotes cpm of control group in which the enzymatic reaction solution was not treated with the sample, and
B denotes cpm of control group treated with the sample without zymogen.

HepG2 cells = assay: DGAT inhibitory effect in HepG2 cells (triglyceride production from [14C]glycerol); type: cell-based; settings: Homo sapiens; for activity at 10 µM: HepG2, 6 h, DMSO control = 100, read-out: Triglyceride production rate (%)/HepG2 cells at 10 μM; for inhibition at 10 µM: HepG2, 10 μM, read-out: biosynthesis inhibition rate of triglyceride
Experimental: To investigate inhibition effect on intracellular DGAT enzyme activity of the compounds obtained in Examples 1-51, intracellular DGAT enzyme activity was measured using human-derived liver HepG2 cells.
HepG2 cells were purchased from ATCC, and cultured in 37° C., 5% CO2 incubator including minimum essential medium (2 mM L-glutamine, earle's BSS adjusted to contain 1.5 g/L sodium bicarbonate, 0.1 mM nonessential amino acids, and 1 mM sodium pyruvate) added with 10% fetal bovine serum (FBS) and 1% antibiotic (100 U/ml penicillin and 100 µg/ml streptomycin).
The intracellular DGAT enzyme activity was measured based on an amount of triglycerides produced in the cultured HepG2 cells, by adding 10 μM enzyme inhibitor compounds obtained in Examples 1-51, respectively, and then determining the effect of the enzyme inhibitors according to reduction rate of the triglyceride production.
Specifically, cells were seeded 1×10^6 cell/ml per well of the 24 well culture plate, and 24 hours after incubation, medium was exchanged with FBS-free DMEM medium, and sample of 0.2 mCi [^14C]glycerol (Amersham) was added as substrate, and the reaction was allowed to occur for 6 hr. The induced production of triglyceride was catalyzed by the DGAT enzyme, and DGAT enzyme activity was determined based on the amount of production of triglyceride which was measured based on the amount of radiation. The sample was dissolved in dimethylsulfoxide (DMSO) to be used, and the control group in the triglyceride production reaction was reacted with dimethylsulfoxide only (i.e., without sample), and the amount of the triglyceride production rate was set to 100.
After the reaction completed, the substrate [^14C]glycerol which was either not absorbed into cells or not used for the reaction, were removed with phosphate-buffer-saline (PBS), and 0.5 ml extraction solvent (hexane:isopropanol=3:2, v:v) was added to extract full fat containing triglycerides. With 0.5 ml extraction solvent, extract was obtained two times for 30 min each, and 1 ml of the extract was concentrated with nitrogen gas. After removing the extraction solvent, the total fat was dissolved in organic solvent (chloroform:methanol=2:1) and spotted with thin-layer chromatography (TLC:silica gel 60F254, thickness: 0.5 mm, Merck) on the developing solvent (hexane:diethyl ether:acetic acid=80:20:1, v: v: v). Triglycerides (Rf value: 0.4) were isolated on TLC, and after exposing the TLC plate to the film with photosensitivity to radiation energy (imaging plate' Fujifilm, BMS-MS 2040) for 3 hr, the amount of [^14C] radiation of triglyceride was measured by imaging analysis (FLA 7000). The remaining cells after the extraction were dissolved in 0.3 ml 0.1 N sodium hydroxide for use in the measurement of protein concentration of the cells used for the reaction.
The experimental errors among the respective experimental groups were compensated with the experimental value which was obtained by dividing the measured radiation of triglyceride by protein concentration, and the production rate of triglyceride according to the respective compounds of Examples 1-51 are tabulated below.

[1] = 10 μM, enzyme from sf9 cells overexpressing hDGAT2, read-out: hDGAT-2 (sf9) inhibition rate(%)at 10 μM
[2] = concentration of 10 μM, read-out: hDGAT2 inhibition

SMILES	inhibition at 10 µM (human DGAT2; [1])	inhibition at 10 µM (human DGAT2; [2])	activity at 10 µM (HepG2 cells)	inhibition at 10 µM (HepG2 cells)
COC(=O)COc1cccc(C(=O)NN(C(=O)/C=C/c2cn(C(=O)OC(C)(C)C)c3ccccc23)C(C)C)c1 [Example 18, (E)-tert-butyl 3-(3-(1-isopropyl-2-(3-(2-methoxy-2-oxoethoxy)benzoyl)hydrazinyl)-3-oxoprop-1-enyl)-1H-indole-1-carboxylate]	< 0%	–	102%	–
CC(C)N(NC(=O)c1cccc(OCC(=O)O)c1)C(=O)/C=C/c1cn(C(=O)OC(C)(C)C)c2ccccc12 [Example 19, (E)-2-(3-(2-(3-(1-(tert-butoxycarbonyl)-1H-indol-3-yl)acryloyl)-2-isopropylhydrazinecarbonyl)phenoxy)acetic acid]	< 0%	–	103%	–
CC(C)N(NC(=O)c1cccc(OCC(N)=O)c1)C(=O)/C=C/c1cn(C(=O)OC(C)(C)C)c2ccccc12 [Example 20, (E)-tert-butyl 3-(3-(2-(3-(2-amino-2-oxoethoxy)benzoyl)-1-isopropylhydrazinyl)-3-oxoprop-1-enyl)-1H-indole-1-carboxylate]	< 0%	–	109%	–
CC(C)N(NC(=O)c1ccccc1)C(=O)CCc1cn(Cc2ccccc2)c2ccccc12 [Example 21, N′-(3-(1-benzyl-1H-indol-3-yl)propanoyl)-N′-isopropylbenzohydrazide]	1.3%	–	103%	–
CC(C)N(NC(=O)c1ccccc1)C(=O)/C=C/c1c[nH]c2ccccc12 [Example 22, (E)-N′-(3-(1H-indol-3-yl)acryloyl)-N′-isopropylbenzohydrazide]	< 0%	–	116%	–
CC(C)N(NC(=O)c1ccccc1)C(=O)CCc1c[nH]c2ccccc12 [Example 23, N′-(3-(1H-indol-3-yl)propanoyl)-N′-isopropylbenzohydrazide]	< 0%	–	87.7%	–
CC(C)N(NC(=O)c1ccccc1)C(=O)CCc1cn(C(=O)OC(C)(C)C)c2ccccc12 [Example 24, tert-butyl 3-(3-(2-benzoyl-1-isopropylhydrazinyl)-3-oxopropyl)-1H-indole-1-carboxylate]	< 0%	–	60.7%	30 to 40%
CC(C)N(NC(=O)c1ccccc1)C(=O)/C=C/c1cn(C)c2ccccc12 [Example 25]	< 0%	–	88.6%	–
CC(C)N(NC(=O)c1ccccc1)C(=O)/C=C/c1cn(Cc2ccccc2)c2ccccc12 [Example 26, (E)-N′-(3-(1-benzyl-1H-indol-3-yl)acryloyl)-N′-isopropylbenzohydrazide]	5%	< 11%	59.8%	30 to 40%

More lines, main results first:

inhibition at 10 µM (human DGAT2; [1])	inhibition at 10 µM (human DGAT2; [2])	SMILES	activity at 10 µM (HepG2 cells)	inhibition at 10 µM (HepG2 cells)
1.2%	< 11%	CC(C)=CCn1cc(/C=C/C(=O)N(NC(=O)c2ccccc2)C(C)C)c2ccccc21 [Example 27, (E)-N′-isopropyl-N′-(3-(1-(3-methylbut-2-enyl)-1H-indol-3-yl)acryloyl)benzohydrazide]	58.5%	–
< 0%	< 11%	CC(C)N(NC(=O)c1ccccc1)C(=O)/C=C/c1cn(CC2CC2)c2ccccc12 [Example 28, (E)-N′-(3-(1-(cyclopropylmethyl)-1H-indol-3-yl)acryloyl)-N′-isopropylbenzohydrazide]	64.4%	30 to 40%
< 0%	< 11%	CC(C)N(NC(=O)c1ccccc1)C(=O)/C=C/c1cn(C2CC2)c2ccccc12 [Example 29, (E)-N′-(3-(1-cyclopropyl-1H-indol-3-yl)acryloyl)-N′-isopropylbenzohydrazide]	59.6%	30 to 40%
< 0%	–	CC(=O)n1cc(/C=C/C(=O)N(NC(=O)c2ccccc2)C(C)C)c2ccccc21 [Example 30, (E)-N′-(3-(1-acetyl-1H-indol-3-yl)acryloyl)-N′-isopropylbenzohydrazide]	89%	–
4.4%	< 11%	CC(C)N(NC(=O)c1ccccc1)C(=O)/C=C/c1cn(C(=O)C(C)(C)C)c2ccccc12 [Example 31, (E)-N′-isopropyl-N′-(3-(1-pivaloyl-1H-indol-3-yl)acryloyl)benzohydrazide]	93.3%	–
11%	< 11%	CC(C)N(NC(=O)c1ccccc1)C(=O)/C=C/c1cn(C(=O)c2ccccc2)c2ccccc12 [Example 32, (E)-N′-(3-(1-benzoyl-1H-indol-3-yl)acryloyl)-N′-isopropylbenzohydrazide]	91.4%	–
< 0%	< 11%	CC(C)N(NC(=O)c1ccccc1)C(=O)/C=C/c1cn(C(=O)CC(C)(C)C)c2ccccc12 [Example 33, (E)-N′-(3-(1-(3,3-dimethylbutanoyl)-1H-indol-3-yl)acryloyl)-N′-isopropylbenzohydrazide]	78.2%	20 to 30%
28.9%	–	CC(C)N(NC(=O)c1ccc(F)cc1)C(=O)/C=C/c1cn(C(=O)OC(C)(C)C)c2ccccc12 [Example 44, (E)-tert-butyl 3-(3-(2-(4-fluorobenzoyl)-1-isopropylhydrazinyl)-3-oxoprop-1-enyl)-1H-indole-1-carboxylate]	94.8%	–
64%	–	CC(C)CCn1cc(/C=C/C(=O)N(NC(=O)c2ccc(F)cc2)C(C)C)c2ccccc21 [Example 46, (E)-4-fluoro-N′-(3-(1-isopentyl-1H-indol-3-yl)acryloyl)-N′-isopropylbenzohydrazide]	63.5%	30 to 40%
34.1%	–	Cc1cccc(C(=O)NN(C(=O)/C=C/c2cn(C(=O)OC(C)(C)C)c3ccccc23)C(C)C)c1 [Example 47, (E)-tert-butyl 3-(3-(1-isopropyl-2-(3-methylbenzoyl)hydrazinyl)-3-oxoprop-1-enyl)-1H-indole-1-carboxylate]	74.7%	20 to 30%
